ChEMBL document CHEMBL4507268 (2021)

Key:
Details in all cases: Compound concentration 1.0 uM
[1] = target: Tyrosine-protein kinase receptor UFO (Homo sapiens) (UniProt P30530)
[2] = target: Serine/threonine-protein kinase B-raf (Homo sapiens) (UniProt P15056)
[3] = target: Vascular endothelial growth factor receptor 2 (Homo sapiens) (UniProt P35968)
[4] = target: Tyrosine-protein kinase Lck (Homo sapiens) (UniProt P06239)
[5] = target: MAP kinase-activated protein kinase 3 (Homo sapiens) (UniProt Q16644)
Sequence of MAP kinase-activated protein kinase 3 (Homo sapiens) (Q16644 whole entry, looked up): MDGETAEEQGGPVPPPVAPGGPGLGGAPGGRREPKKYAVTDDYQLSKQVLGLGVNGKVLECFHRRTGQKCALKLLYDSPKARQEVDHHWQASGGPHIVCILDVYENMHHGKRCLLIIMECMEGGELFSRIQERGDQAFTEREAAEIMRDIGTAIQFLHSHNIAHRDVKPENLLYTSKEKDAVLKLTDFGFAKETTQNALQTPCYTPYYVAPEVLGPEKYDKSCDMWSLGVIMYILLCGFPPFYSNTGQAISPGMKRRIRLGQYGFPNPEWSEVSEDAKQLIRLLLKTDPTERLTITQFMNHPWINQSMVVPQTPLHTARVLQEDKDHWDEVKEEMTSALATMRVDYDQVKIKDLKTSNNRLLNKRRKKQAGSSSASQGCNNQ

[6] = target: T1, MAP/microtubule affinity-regulating kinase 4 (Homo sapiens) (UniProt Q96L34)
T1 sequence (whole entry): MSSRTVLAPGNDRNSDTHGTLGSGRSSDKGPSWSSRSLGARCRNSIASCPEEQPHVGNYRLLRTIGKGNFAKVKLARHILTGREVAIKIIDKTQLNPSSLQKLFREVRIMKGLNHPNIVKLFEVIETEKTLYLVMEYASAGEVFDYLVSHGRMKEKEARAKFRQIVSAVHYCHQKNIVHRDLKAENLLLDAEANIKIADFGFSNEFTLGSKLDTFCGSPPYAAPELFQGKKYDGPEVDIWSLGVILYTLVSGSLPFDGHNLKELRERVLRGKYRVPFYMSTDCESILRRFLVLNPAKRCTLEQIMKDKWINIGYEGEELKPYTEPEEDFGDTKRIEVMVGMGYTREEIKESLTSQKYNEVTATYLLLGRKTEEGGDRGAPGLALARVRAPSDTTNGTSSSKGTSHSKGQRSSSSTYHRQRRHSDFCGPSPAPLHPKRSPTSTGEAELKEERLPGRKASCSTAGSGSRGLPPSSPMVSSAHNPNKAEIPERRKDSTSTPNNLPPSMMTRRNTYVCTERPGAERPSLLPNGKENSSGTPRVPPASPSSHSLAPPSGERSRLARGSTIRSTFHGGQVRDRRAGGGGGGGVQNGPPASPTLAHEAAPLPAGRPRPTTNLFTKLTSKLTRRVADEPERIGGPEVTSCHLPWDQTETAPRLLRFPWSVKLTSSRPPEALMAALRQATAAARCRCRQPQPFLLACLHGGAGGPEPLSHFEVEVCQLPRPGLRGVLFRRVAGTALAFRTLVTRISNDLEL

[7] = target: T2, Mitogen-activated protein kinase kinase kinase 2 (Homo sapiens) (UniProt Q9Y2U5)
T2 sequence (whole entry): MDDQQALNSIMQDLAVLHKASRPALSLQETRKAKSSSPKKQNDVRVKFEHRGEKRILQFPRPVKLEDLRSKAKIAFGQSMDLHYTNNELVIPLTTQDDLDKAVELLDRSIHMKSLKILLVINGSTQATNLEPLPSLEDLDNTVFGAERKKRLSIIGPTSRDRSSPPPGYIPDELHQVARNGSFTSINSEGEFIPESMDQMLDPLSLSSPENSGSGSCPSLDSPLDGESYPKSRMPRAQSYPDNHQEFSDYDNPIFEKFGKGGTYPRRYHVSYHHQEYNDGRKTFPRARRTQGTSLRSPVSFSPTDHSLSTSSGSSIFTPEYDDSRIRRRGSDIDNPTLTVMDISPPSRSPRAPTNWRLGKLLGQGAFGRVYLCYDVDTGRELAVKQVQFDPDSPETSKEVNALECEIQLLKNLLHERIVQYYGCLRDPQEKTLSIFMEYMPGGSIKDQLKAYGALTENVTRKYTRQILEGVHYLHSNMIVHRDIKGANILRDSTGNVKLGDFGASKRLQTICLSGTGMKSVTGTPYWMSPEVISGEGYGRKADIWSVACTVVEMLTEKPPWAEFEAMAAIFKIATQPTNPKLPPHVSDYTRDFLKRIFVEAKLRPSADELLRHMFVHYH

[8] = target: Protein kinase C delta type (Homo sapiens) (UniProt Q05655)
[9] = target: T3, cAMP-dependent protein kinase catalytic subunit PRKX (Homo sapiens) (UniProt P51817)
T3 sequence (whole entry): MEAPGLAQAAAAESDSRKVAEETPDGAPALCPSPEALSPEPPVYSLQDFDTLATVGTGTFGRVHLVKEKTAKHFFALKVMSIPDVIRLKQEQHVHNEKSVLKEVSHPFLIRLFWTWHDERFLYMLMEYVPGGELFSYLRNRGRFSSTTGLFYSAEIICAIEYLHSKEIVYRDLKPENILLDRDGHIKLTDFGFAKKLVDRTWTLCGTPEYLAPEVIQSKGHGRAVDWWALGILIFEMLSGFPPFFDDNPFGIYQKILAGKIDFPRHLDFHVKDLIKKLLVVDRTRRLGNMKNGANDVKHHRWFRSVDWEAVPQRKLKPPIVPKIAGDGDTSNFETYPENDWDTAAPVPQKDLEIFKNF

[10] = target: Protein-tyrosine kinase 2-beta (Homo sapiens) (UniProt Q14289)
Sequence of Protein-tyrosine kinase 2-beta (Homo sapiens) (Q14289 whole entry, looked up): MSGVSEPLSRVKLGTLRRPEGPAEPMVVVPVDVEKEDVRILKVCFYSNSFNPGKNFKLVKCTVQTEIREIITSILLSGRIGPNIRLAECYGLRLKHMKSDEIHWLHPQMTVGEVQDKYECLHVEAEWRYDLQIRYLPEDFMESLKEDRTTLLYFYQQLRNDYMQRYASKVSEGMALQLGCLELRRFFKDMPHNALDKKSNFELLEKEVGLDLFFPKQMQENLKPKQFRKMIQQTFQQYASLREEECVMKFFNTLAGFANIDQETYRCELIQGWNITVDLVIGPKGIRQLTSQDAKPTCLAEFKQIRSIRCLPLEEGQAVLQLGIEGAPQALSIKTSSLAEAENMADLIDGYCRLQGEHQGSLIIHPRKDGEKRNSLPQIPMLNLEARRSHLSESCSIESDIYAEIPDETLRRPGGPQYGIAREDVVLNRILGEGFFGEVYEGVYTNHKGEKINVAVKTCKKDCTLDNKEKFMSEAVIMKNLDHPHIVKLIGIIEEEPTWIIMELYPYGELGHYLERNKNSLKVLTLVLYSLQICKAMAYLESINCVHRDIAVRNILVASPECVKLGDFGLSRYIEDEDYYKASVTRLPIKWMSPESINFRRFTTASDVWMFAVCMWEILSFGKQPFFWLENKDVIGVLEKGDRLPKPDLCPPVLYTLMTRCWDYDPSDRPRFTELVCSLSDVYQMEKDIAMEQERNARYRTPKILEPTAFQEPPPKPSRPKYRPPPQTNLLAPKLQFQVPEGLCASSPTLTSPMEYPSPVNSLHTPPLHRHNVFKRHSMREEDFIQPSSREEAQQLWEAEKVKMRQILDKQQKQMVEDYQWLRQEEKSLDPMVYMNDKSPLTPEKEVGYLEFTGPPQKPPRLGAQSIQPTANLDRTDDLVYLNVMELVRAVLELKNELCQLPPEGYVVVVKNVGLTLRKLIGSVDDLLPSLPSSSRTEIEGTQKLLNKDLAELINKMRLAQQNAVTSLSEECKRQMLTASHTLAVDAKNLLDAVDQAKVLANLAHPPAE

[11] = target: STE20-like serine/threonine-protein kinase (Homo sapiens) (UniProt Q9H2G2)
Sequence of STE20-like serine/threonine-protein kinase (Homo sapiens) (Q9H2G2 whole entry, looked up): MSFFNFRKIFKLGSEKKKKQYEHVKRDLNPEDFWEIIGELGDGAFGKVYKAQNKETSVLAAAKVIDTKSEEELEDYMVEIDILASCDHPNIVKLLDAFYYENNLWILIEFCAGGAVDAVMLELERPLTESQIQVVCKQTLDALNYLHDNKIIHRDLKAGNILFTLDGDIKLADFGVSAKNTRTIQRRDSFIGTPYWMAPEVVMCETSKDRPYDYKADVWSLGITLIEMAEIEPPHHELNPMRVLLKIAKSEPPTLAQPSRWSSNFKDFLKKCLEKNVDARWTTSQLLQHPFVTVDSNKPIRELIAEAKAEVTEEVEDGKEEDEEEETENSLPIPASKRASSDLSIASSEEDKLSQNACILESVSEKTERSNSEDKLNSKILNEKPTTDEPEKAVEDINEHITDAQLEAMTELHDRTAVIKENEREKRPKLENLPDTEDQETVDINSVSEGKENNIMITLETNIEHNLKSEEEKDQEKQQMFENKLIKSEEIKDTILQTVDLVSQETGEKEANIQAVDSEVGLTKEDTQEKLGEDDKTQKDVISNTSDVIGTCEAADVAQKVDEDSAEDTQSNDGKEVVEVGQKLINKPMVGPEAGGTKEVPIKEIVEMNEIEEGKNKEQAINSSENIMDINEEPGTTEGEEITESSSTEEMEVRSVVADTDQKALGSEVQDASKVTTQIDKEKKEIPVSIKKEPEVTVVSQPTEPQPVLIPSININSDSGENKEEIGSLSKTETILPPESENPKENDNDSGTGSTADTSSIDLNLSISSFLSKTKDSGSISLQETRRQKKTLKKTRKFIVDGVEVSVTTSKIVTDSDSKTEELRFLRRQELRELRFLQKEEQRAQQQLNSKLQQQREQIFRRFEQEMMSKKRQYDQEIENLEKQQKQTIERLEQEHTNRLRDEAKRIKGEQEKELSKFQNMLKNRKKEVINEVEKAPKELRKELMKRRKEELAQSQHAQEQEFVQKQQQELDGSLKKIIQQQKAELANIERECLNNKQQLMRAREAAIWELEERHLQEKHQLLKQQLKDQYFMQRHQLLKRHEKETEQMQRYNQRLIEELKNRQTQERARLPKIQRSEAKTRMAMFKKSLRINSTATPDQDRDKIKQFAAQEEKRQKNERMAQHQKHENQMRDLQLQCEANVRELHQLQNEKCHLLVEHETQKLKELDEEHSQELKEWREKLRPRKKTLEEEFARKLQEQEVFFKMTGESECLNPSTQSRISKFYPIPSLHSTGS

[12] = target: T4, Testis-specific serine/threonine-protein kinase 1 (Homo sapiens) (UniProt Q9BXA7)
T4 sequence (whole entry): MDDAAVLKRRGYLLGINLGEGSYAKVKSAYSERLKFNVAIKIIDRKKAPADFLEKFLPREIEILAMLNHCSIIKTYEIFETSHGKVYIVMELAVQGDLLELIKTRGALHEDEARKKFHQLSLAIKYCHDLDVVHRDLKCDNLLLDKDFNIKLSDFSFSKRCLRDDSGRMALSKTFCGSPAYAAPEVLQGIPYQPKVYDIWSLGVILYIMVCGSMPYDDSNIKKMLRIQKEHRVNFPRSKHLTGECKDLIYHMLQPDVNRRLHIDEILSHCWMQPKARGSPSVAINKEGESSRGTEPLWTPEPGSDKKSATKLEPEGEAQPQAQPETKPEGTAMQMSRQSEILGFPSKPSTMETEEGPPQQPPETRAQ

Measured: % residual kinase activity

Sequence of Tyrosine-protein kinase Lck (Homo sapiens) (P06239 2-509 limits assumed): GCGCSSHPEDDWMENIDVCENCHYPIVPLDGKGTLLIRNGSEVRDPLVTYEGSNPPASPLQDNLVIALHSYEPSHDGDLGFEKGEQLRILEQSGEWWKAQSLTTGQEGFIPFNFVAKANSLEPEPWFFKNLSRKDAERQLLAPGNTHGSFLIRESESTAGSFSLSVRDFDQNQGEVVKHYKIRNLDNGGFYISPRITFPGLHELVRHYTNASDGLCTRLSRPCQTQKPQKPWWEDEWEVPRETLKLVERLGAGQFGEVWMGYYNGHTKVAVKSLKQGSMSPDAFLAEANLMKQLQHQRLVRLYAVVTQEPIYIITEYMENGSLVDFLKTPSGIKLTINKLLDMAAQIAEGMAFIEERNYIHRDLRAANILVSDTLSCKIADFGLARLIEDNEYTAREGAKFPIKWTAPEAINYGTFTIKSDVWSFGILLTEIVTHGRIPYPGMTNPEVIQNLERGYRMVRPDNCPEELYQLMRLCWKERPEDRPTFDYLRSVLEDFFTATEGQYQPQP
Sequence of Tyrosine-protein kinase receptor UFO (Homo sapiens) (P30530 whole entry): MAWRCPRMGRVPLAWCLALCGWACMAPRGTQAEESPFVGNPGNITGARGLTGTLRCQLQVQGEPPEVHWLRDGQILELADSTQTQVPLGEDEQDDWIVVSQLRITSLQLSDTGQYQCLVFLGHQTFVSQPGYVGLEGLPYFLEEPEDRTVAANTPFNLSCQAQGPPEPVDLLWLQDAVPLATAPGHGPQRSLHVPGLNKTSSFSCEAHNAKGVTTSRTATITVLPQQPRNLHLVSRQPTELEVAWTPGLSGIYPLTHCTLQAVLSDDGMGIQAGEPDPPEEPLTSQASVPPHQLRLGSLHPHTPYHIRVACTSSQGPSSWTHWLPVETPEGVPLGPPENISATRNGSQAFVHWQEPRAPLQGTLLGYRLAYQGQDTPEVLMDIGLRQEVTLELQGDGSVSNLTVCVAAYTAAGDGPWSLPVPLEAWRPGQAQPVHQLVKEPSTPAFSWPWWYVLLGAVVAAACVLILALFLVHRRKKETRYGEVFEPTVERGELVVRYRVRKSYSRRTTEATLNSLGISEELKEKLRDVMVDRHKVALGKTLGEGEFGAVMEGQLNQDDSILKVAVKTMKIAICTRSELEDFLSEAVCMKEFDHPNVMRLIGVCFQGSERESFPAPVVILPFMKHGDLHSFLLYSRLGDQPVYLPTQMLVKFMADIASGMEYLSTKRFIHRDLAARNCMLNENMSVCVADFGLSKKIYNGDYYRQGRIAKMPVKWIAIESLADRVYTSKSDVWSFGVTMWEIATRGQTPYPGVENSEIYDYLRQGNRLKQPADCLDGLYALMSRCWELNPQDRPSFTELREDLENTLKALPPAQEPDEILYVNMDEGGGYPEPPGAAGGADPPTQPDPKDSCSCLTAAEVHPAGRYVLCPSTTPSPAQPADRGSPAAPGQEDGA
Sequence of Serine/threonine-protein kinase B-raf (Homo sapiens) (P15056 whole entry): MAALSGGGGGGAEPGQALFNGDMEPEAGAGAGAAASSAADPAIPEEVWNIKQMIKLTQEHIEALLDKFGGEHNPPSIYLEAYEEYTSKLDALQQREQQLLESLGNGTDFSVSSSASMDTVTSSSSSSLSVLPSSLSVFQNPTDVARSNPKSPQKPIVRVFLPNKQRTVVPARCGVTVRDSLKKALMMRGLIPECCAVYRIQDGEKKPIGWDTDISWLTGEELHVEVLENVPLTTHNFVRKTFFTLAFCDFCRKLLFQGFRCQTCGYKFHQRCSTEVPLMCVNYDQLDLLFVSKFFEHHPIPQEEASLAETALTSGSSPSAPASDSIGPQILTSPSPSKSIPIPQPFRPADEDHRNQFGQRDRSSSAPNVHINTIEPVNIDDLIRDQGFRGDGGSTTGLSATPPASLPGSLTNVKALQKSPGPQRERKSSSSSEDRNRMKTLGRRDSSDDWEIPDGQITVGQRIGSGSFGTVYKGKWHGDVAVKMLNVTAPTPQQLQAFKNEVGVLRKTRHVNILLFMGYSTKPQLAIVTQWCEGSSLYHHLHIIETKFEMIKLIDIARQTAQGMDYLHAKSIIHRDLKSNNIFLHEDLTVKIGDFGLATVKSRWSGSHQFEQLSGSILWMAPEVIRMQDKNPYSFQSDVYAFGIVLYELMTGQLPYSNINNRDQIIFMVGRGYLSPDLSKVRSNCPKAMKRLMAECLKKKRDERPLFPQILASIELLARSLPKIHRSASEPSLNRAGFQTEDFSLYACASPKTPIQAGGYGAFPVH

CN1CCN(c2cnc3c(C4CCN(C(=O)c5ccc(OC(F)(F)F)cc5N)CC4)ncnc3c2)CC1 [BAY-885]
inactive: [1] 91% | [2] 109% | [3] 100% | [4] 105% | [5] 113% | [6] 100% | [7] 116% | [8] 115% | [9] 121% | [10] 103% | [11] 87% | [12] 107%
